Assay results taken from patent US10556907B2 (AbbVie Inc., priority 2015, dated 2020).
pEC50: −log10 of the molar value.

Tests used:
Test in all cases: Method 1: intracellular Ca2+ release (FLIPR, Calcium 5) in recombinant CHO-K1 cells
Type in all cases: cell-based
human S1PR3 receptor = molecular target: T1, human S1PR3 receptor (Homo sapiens, UniProt Q99500); conditions: (1): determined with method 1; read-out: S1P3 EC50
T1 construct: host or cells: CHO-K1
In short: (§1)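 Cells expressing the receptor with promiscuous Gq/i5 are dye-loaded, equilibrated at room temperature and challenged with test compound while fluorescence is recorded by FLIPR. Potency is derived by nonlinear fitting after normalization to phospho-fingolimod.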

human S1PR5 receptor = molecular target: T2, human S1PR5 receptor (Homo sapiens, UniProt Q9H228); conditions: agonist potency, determined with method 1 (symbols A-D); read-out: S1P5 EC50 range
T2 construct: host or cells: CHO-K1
In short: as §1

human S1PR1 receptor = molecular target: T3, human S1PR1 receptor (Homo sapiens, UniProt P21453); conditions: (1): determined with method 1; read-out: S1P1 EC50
T3 construct: host or cells: CHO-K1
In short: as §1

human S1PR4 receptor = molecular target: T4, human S1PR4 receptor (Homo sapiens, UniProt O95977); conditions: (1): determined with method 1; read-out: S1P4 EC50
T4 construct: host or cells: CHO-K1
T4 sequence (O95977 1-384): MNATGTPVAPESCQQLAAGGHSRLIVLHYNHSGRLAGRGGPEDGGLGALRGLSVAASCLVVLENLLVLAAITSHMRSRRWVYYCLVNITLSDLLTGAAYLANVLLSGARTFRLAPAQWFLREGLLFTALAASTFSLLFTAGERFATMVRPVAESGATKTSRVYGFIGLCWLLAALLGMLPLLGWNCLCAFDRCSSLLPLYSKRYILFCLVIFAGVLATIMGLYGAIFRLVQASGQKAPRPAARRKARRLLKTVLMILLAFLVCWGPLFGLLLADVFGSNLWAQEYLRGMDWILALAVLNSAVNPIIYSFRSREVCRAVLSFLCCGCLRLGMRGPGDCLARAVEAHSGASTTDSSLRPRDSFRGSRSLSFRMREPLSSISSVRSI
In short: as §1

T3 sequence (P21453 whole entry): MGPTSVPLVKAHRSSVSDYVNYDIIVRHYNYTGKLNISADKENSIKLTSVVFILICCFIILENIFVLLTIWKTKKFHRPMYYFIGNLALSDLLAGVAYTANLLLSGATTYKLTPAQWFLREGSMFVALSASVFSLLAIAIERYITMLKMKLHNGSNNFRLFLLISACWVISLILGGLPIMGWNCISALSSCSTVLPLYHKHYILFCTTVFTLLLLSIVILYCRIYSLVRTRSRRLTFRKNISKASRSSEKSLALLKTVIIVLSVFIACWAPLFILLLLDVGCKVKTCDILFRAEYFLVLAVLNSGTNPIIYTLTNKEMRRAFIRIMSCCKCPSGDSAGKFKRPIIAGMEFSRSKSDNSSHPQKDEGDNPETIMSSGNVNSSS
T1 sequence (Q99500 whole entry): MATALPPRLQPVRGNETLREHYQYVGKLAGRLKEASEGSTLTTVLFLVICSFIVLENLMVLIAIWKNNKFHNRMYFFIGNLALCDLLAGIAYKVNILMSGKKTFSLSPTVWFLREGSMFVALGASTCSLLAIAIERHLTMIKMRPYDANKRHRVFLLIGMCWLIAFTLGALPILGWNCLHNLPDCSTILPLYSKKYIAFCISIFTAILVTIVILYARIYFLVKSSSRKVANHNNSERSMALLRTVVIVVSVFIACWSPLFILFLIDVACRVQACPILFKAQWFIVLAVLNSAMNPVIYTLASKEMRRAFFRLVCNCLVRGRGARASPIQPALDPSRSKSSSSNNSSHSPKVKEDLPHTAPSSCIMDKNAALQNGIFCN
T2 sequence (Q9H228 whole entry): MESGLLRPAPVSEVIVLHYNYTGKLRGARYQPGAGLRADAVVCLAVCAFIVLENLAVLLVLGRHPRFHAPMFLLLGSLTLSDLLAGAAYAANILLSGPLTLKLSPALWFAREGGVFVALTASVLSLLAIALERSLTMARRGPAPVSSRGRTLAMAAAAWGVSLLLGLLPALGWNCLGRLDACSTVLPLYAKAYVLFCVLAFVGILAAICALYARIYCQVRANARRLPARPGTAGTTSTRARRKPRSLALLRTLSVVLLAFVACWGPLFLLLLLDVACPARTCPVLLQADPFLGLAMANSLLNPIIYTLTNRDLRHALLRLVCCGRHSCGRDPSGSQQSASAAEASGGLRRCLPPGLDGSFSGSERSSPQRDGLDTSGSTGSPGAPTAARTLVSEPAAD

| Compound | pEC50 (human S1PR3 receptor) | pEC50 (human S1PR5 receptor) | pEC50 (human S1PR1 receptor) | pEC50 (human S1PR4 receptor) |
| --- | --- | --- | --- | --- |
| CC(CC(=O)O)CN1CCc2nc(-c3ccc(OCc4ccc(Cl)cc4)cc3)ncc2C1 (racemic) [Compound 23, 4-(2-(4-((4-chlorobenzyl)oxy)phenyl)-7,8-dihydropyrido[4,3-d]pyrimidin-6(5H)-yl)-3-methylbutanoic acid] | < 6.00 | > 8.00 | < 6.00 | < 6.00 |
| CC(CN1CCc2nc(-c3ccc(OCc4cc(Cl)cc(Cl)c4)cc3)ncc2C1)C(=O)O (single isomer, unassigned) [Compound 19, 3-(2-(4-((3,5-dichlorobenzyl)oxy)phenyl)-7,8-dihydropyrido[4,3-d]pyrimidin-6(5H)-yl)-2-methylpropanoic acid] | < 6.00 | > 8.00 | < 6.00 | < 6.00 |
| CC(CN1CCc2nc(-c3ccc(OCc4cc(Cl)cc(Cl)c4)cc3)ncc2C1)C(=O)O (single isomer, unassigned) [Compound 20, 3-(2-(4-((3,5-dichlorobenzyl)oxy)phenyl)-7,8-dihydropyrido[4,3-d]pyrimidin-6(5H)-yl)-2-methylpropanoic acid] | < 6.00 | 7.00 to 8.00 | < 6.00 | < 6.00 |
| C[C@@H](CC(=O)O)CN1CCc2nc(-c3ccc(C(F)(F)Cc4ccc(Cl)cc4)cc3)ncc2C1 (single isomer, unassigned) [Compound 266, 4-(2-(4-(2-(4-chlorophenyl)-1,1-difluoroethyl)phenyl)-7,8-dihydropyrido[4,3-d]pyrimidin-6(5H)-yl)-3-methylbutanoic acid] | < 6.00 | 7.00 to 8.00 | < 6.00 | < 6.00 |
| CC(CC(=O)O)CN1CCc2nc(-c3ccc(OCc4ccc(Cl)cc4)cc3)ncc2C1 (single isomer, unassigned; (+)) [Compound 212, (+)-4-(2-(4-((4-chlorobenzyl)oxy)phenyl)-7,8-dihydropyrido[4,3-d]pyrimidin-6(5H)-yl)-3-methylbutanoic acid] | < 6.00 | > 8.00 | < 6.00 | < 6.00 |
| O=C(O)C1(CN2CCc3nc(-c4ccc(OCc5cccc(Cl)c5)cc4)ncc3C2)CC1 [Compound 1, 1-((2-(4-((3-chlorobenzyl)oxy)phenyl)-7,8-dihydropyrido[4,3-d]pyrimidin-6(5H)-yl)methyl)cyclopropanecarboxylic acid] | < 6.00 | 6.00 to 7.00 | < 6.00 | < 6.00 |
| O=C(O)CC1CC(N2CCc3nc(-c4ccc(OCc5ccc(Cl)cc5)cc4)ncc3C2)C1 (stereo not shown) [Compound 2, 2-(3-(2-(4-((4-chlorobenzyl)oxy)phenyl)-7,8-dihydropyrido[4,3-d]pyrimidin-6(5H)-yl)cyclobutyl)acetic acid] | < 6.00 | 6.00 to 7.00 | < 6.00 | < 6.00 |
| O=C(O)CC1CC(N2CCc3nc(-c4ccc(OCc5cccc(Cl)c5)cc4)ncc3C2)C1 (stereo not shown) [Compound 3, 2-(3-(2-(4-((3-chlorobenzyl)oxy)phenyl)-7,8-dihydropyrido[4,3-d]pyrimidin-6(5H)-yl)cyclobutyl)acetic acid] | < 6.00 | 6.00 to 7.00 | < 6.00 | < 6.00 |
| CC(CN1CCc2nc(-c3ccc(OCc4cccc(F)c4)cc3)ncc2C1)C(=O)O (stereo not shown) [Compound 8, 3-(2-(4-((3-fluorobenzyl)oxy)phenyl)-7,8-dihydropyrido[4,3-d]pyrimidin-6(5H)-yl)-2-methylpropanoic acid] | < 6.00 | > 8.00 | < 6.00 | < 6.00 |
| CC(CN1CCc2nc(-c3ccc(OCc4ccc(Cl)cc4)cc3)ncc2C1)C(=O)O (stereo not shown) [Compound 12, 3-(2-(4-((4-chlorobenzyl)oxy)phenyl)-7,8-dihydropyrido[4,3-d]pyrimidin-6(5H)-yl)-2-methylpropanoic acid] | < 6.00 | > 8.00 | < 6.00 | < 6.00 |
| CC(CN1CCc2nc(-c3ccc(OCc4ccc(Cl)c(Cl)c4)cc3)ncc2C1)C(=O)O (stereo not shown) [Compound 14, 3-(2-(4-((3,4-dichlorobenzyl)oxy)phenyl)-7,8-dihydropyrido[4,3-d]pyrimidin-6(5H)-yl)-2-methylpropanoic acid] | < 6.00 | > 8.00 | < 6.00 | < 6.00 |
| CC(CN1CCc2nc(-c3ccc(OCc4cc(Cl)cc(Cl)c4)cc3)ncc2C1)C(=O)O (stereo not shown) [Compound 17, 3-(2-(4-((3,5-dichlorobenzyl)oxy)phenyl)-7,8-dihydropyrido[4,3-d]pyrimidin-6(5H)-yl)-2-methylpropanoic acid] | < 6.00 | > 8.00 | < 6.00 | < 6.00 |
| CCc1cccc(Cl)c1COc1ccc(-c2ncc3c(n2)CCN(CC(C)C(=O)O)C3)cc1 (stereo not shown) [Compound 18, 3-(2-(4-((2-chloro-6-ethylbenzyl)oxy)phenyl)-7,8-dihydropyrido[4,3-d]pyrimidin-6(5H)-yl)-2-methylpropanoic acid] | < 6.00 | 7.00 to 8.00 | < 6.00 | > 6.00 |
| CC(CC(=O)O)CN1CCc2nc(-c3ccc(OCc4cccc(Cl)c4)cc3)ncc2C1 (stereo not shown) [Compound 22, 4-(2-(4-((3-chlorobenzyl)oxy)phenyl)-7,8-dihydropyrido[4,3-d]pyrimidin-6(5H)-yl)-3-methylbutanoic acid] | < 6.00 | > 8.00 | < 6.00 | < 6.00 |
| O=C(O)CN1CCc2nc(Cc3ccccc3)ncc2C1 [Compound 24, 2-(2-benzyl-7,8-dihydropyrido[4,3-d]pyrimidin-6(5H)-yl)acetic acid] | < 6.00 | 5.00 to 6.00 | < 6.00 | < 6.00 |
| O=C(O)CN1CCc2nc(-c3ccc(OCc4ccc(Cl)c(Cl)c4)cc3)ncc2C1 [Compound 30, 2-(2-(4-((3,4-dichlorobenzyl)oxy)phenyl)-7,8-dihydropyrido[4,3-d]pyrimidin-6(5H)-yl)acetic acid] | < 6.00 | 7.00 to 8.00 | < 6.00 | < 6.00 |
| O=C(O)CN1CCc2nc(-c3ccc(OCc4cccc(Cl)c4)cc3)ncc2C1 [Compound 32, 2-(2-(4-((3-chlorobenzyl)oxy)phenyl)-7,8-dihydropyrido[4,3-d]pyrimidin-6(5H)-yl)acetic acid] | < 6.00 | 6.00 to 7.00 | < 6.00 | < 6.00 |
| Cc1cccc(C)c1COc1ccc(-c2ncc3c(n2)CCN(CC(=O)O)C3)cc1 [Compound 33, 2-(2-(4-((2,6-dimethylbenzyl)oxy)phenyl)-7,8-dihydropyrido[4,3-d]pyrimidin-6(5H)-yl)acetic acid] | > 6.00 | 6.00 to 7.00 | < 6.00 | > 6.00 |
| O=C(O)CN1CCc2nc(-c3ccc(OCc4c(Cl)cccc4Cl)cc3)ncc2C1 [Compound 34, 2-(2-(4-((2,6-dichlorobenzyl)oxy)phenyl)-7,8-dihydropyrido[4,3-d]pyrimidin-6(5H)-yl)acetic acid] | > 6.00 | 6.00 to 7.00 | > 6.00 | > 6.00 |
| CCc1cccc(Cl)c1COc1ccc(-c2ncc3c(n2)CCN(CC(=O)O)C3)cc1 [Compound 35, 2-(2-(4-((2-chloro-6-ethylbenzyl)oxy)phenyl)-7,8-dihydropyrido[4,3-d]pyrimidin-6(5H)-yl)acetic acid] | > 6.00 | 6.00 to 7.00 | > 6.00 | > 6.00 |
| O=C(O)CCCN1CCc2nc(-c3ccc(OCc4ccc(Cl)cc4)cc3)ncc2C1 [Compound 40, 4-(2-(4-((4-chlorobenzyl)oxy)phenyl)-7,8-dihydropyrido[4,3-d]pyrimidin-6(5H)-yl)butanoic acid] | < 6.00 | > 8.00 | < 6.00 | < 6.00 |
| CC(CC(=O)O)N1CCc2nc(-c3ccc(OCc4ccc(Cl)c(Cl)c4)cc3)ncc2C1 (stereo not shown) [Compound 45, 3-(2-(4-((3,4-dichlorobenzyl)oxy)phenyl)-7,8-dihydropyrido[4,3-d]pyrimidin-6(5H)-yl)butanoic acid] | < 6.00 | 7.00 to 8.00 | < 6.00 | < 6.00 |
| O=C(O)CCCN1CCc2nc(Cc3ccccc3)ncc2C1 [Compound 50, 4-(2-benzyl-7,8-dihydropyrido[4,3-d]pyrimidin-6(5H)-yl)butanoic acid] | < 6.00 | 5.00 to 6.00 | < 6.00 | < 6.00 |
| O=C(O)CCCN1CCc2nc(Cc3c(F)cccc3F)ncc2C1 [Compound 51, 4-(2-(2,6-difluorobenzyl)-7,8-dihydropyrido[4,3-d]pyrimidin-6(5H)-yl)butanoic acid] | < 6.00 | 5.00 to 6.00 | < 6.00 | < 6.00 |
| O=C(O)C1CC(N2CCc3nc(Cc4c(F)cccc4F)ncc3C2)C1 (stereo not shown) [Compound 53, 3-(2-(2,6-difluorobenzyl)-7,8-dihydropyrido[4,3-d]pyrimidin-6(5H)-yl)cyclobutanecarboxylic acid] | < 6.00 | 5.00 to 6.00 | < 6.00 | < 6.00 |
